Source: ChEMBL document CHEMBL5550146, “Design, synthesis, and biological evaluation of novel sesquiterpene lactone derivatives as PKM2 activators with potent anti-ulcerative colitis activities” (Eur J Med Chem, 2024)
Calls of active or inactive are those of the source. No cut-off for these calls is given here.

Experiments:
[1] = test system: T-cell; assay: Antiproliferative activity against concanavalin A-stimulated C57BL/6 mouse T cells measured after 48 hrs by CCK8 assay; type: functional, cell-based; details: C57BL/6, T-cell
[2] = molecular target: T1, Pyruvate kinase PKM (Homo sapiens, UniProt P14618); assay: Activation of recombinant human PKM2 incubated for 40 mins by pyruvate kinase assay
Target sequence in this assay (P14618 whole entry): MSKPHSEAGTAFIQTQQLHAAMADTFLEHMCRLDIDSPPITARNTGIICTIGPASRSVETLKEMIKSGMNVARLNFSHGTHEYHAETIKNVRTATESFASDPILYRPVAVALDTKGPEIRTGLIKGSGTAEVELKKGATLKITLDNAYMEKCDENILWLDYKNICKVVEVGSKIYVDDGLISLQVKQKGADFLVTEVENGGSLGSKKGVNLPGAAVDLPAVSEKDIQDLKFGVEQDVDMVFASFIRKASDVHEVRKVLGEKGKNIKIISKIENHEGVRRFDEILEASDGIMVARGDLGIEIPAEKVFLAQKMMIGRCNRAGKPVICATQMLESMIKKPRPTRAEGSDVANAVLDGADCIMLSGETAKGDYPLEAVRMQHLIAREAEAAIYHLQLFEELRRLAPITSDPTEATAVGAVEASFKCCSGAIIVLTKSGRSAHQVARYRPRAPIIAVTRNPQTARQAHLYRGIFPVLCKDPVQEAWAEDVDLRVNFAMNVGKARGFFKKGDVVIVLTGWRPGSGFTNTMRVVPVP

[3] = test system: T-cell; assay: Potency index, ratio of Parthenolide IC50 to test compound IC50 for antiproliferative activity against concanavalin A-stimulated C57BL/6 mouse T cells measured after 48 hrs by CCK8 assay; type: functional
[4] = molecular target: Pyruvate kinase PKM (Mus musculus) (UniProt P52480); assay: Induction of thermal stabilization of PKM2 in C57BL/6 mouse CD4+ T cells at 1 uM incubated for 4 hrs at 58 to 64 degreeC by CETSA; type: cell-based; details: CD4+ T cell
Pyruvate kinase PKM (Mus musculus), sequence (P52480 whole entry): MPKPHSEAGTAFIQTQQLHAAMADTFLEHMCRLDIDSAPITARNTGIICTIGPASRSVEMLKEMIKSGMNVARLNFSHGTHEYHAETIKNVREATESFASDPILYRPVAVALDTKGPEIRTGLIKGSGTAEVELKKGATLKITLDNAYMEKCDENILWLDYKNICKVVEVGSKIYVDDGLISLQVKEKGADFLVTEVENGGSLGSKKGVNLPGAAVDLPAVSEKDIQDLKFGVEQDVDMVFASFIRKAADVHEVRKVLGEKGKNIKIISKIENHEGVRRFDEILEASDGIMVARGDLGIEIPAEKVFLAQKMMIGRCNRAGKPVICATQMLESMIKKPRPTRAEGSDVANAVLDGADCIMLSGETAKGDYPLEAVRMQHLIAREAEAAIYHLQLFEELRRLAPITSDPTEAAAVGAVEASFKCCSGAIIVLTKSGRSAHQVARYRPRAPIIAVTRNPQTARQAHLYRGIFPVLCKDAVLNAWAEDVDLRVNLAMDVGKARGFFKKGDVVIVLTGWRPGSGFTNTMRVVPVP

[5] = molecular target: T1, Pyruvate kinase PKM; assay: Binding affinity to PKM2 (unknown origin) assessed as association rate constant (Ka) at 3.125 to 50 uM by SPR analysis; details: filed as activator, dose 3.125-50 µM
Target sequence in this assay (P14618 2-531 limits assumed): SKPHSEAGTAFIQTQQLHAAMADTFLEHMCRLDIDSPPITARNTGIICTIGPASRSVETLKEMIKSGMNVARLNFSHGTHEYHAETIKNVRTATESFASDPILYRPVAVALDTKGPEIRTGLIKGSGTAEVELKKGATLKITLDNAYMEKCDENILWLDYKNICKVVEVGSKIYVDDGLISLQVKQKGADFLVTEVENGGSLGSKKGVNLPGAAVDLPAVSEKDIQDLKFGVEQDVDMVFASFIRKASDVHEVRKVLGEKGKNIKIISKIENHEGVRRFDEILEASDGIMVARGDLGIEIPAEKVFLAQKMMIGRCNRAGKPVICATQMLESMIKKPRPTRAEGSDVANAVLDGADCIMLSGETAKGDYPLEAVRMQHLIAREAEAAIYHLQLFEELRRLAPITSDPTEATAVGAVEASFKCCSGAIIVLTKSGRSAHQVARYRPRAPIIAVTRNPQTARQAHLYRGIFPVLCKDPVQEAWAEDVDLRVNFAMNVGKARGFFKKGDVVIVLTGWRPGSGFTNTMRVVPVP

[6] = molecular target: T1, Pyruvate kinase PKM; assay: Binding affinity to PKM2 (unknown origin) assessed as dissociation rate constant (Kd) at 3.125 to 50 uM by SPR analysis
Target sequence in this assay (P14618 whole entry): as the sequence (P14618 whole entry) above

[7] = molecular target: T1, Pyruvate kinase PKM; assay: Binding affinity to PKM2 (unknown origin) assessed as dissociation constant by SPR analysis
Target sequence in this assay (P14618 whole entry): as above

[8] = molecular target: T1, Pyruvate kinase PKM; assay: Covalent binding affinity to Cys423 residue of recombinant human PKM2 at 50 uM incubated for 60 mins by LC-MS/MS analysis; details: filed as activator
Target sequence in this assay (P14618 2-531 limits assumed): as the sequence (P14618 2-531 limits assumed) above

[9] = test system: Th17; assay: Downregulation of total PKM2 expression in C57BL/6 mouse Th17 cells differentiated from CD4+ T cells at 0.1 to 1 uM incubated for 48 hrs by Western blot analysis; type: functional, cell-based; details: dose 0.1-1 µM
[10] = molecular target: Pyruvate kinase PKM (Mus musculus) (UniProt P52480); assay: Inhibition of PKM2 dimer nuclear translocation in C57BL/6 mouse Th17 cells differentiated from CD4+ T cells assessed as decrease in PKM2 expression in nucleus at 0.1 to 1 uM incubated for 48 hrs by Western blot analysis; type: cell-based; details: dose 0.1-1 µM
[11] = test system: Th17; assay: Effect on PKM2 expression in cytoplasm of C57BL/6 mouse Th17 cells differentiated from CD4+ T cells at 0.1 to 1 uM incubated for 48 hrs by Western blot analysis; type: functional, cell-based; details: dose 0.1-1 µM
[12] = molecular target: Pyruvate kinase PKM (Mus musculus) (UniProt P52480); assay: Activation of PKM2 in C57BL/6 mouse Th17 cells differentiated from CD4+ T cells assessed as induction of PKM2 tetramer formation at 0.1 to 1 uM incubated for 48 hrs by immunoblotting based protein cross linking assay; type: cell-based; details: filed as activator, dose 0.1-1 µM
[13] = test system: Th17; assay: Inhibition of C57BL/6 mouse Th17 cell differentiation from CD4+ T cells assessed as reduction in RORC mRNA expression at 0.1 uM incubated for 96 hrs by qPCR analysis; type: functional, cell-based
[14] = test system: Th17; assay: Inhibition of C57BL/6 mouse Th17 cell differentiation from CD4+ T cells assessed as reduction in IL-17a mRNA expression at 0.1 uM incubated for 96 hrs by qPCR analysis; type: functional, cell-based
[15] = test system: Th17; assay: Inhibition of C57BL/6 mouse Th17 cell differentiation from CD4+ T cells assessed as reduction in […] mRNA expression at 0.1 uM incubated for 96 hrs by qPCR analysis; type: functional, cell-based
[16] = test system: Th17; assay: Inhibition of C57BL/6 mouse Th17 cell differentiation from CD4+ T cells assessed as reduction in IL-21 mRNA expression at 0.1 uM incubated for 96 hrs by qPCR analysis; type: functional, cell-based
[17] = Inhibition of C57BL/6 mouse Th17 cells differentiation from CD4+ T cells assessed as frequency of CD4+ IL-17A+ Th17 cells at 0.1 uM incubated for 96 hrs by flow cytometric analysis (reference value: 23.52 %); type: functional; set-up: scale not given: the % may be the effect or the level left
[18] = Inhibition of C57BL/6 mouse Th17 cells differentiation from CD4+ T cells assessed as frequency of CD4+ IL-17A+ Th17 cells at 0.3 uM incubated for 96 hrs by flow cytometric analysis (reference value: 23.52 %); type: functional; set-up: scale not given: the % may be the effect or the level left
[19] = Inhibition of C57BL/6 mouse Th17 cells differentiation from CD4+ T cells assessed as frequency of CD4+ IL-17A+ Th17 cells at 1 uM incubated for 96 hrs by flow cytometric analysis (reference value: 23.52 %); type: functional; set-up: scale not given: the % may be the effect or the level left
[20] = Inhibition of C57BL/6 mouse Regulatory T cells differentiation from CD4+ T cells assessed as frequency of CD4+ Foxp3+ Treg cells at 0.1 uM incubated for 96 hrs by flow cytometric analysis ( Rvb = 24.48 %); type: functional, Regulatory T cell; set-up: scale not given: the % may be the effect or the level left
[21] = Inhibition of C57BL/6 mouse Regulatory T cells differentiation from CD4+ T cells assessed as frequency of CD4+ Foxp3+ Treg cells at 0.3 uM incubated for 96 hrs by flow cytometric analysis ( Rvb = 24.48 %); type: functional, Regulatory T cell; set-up: scale not given: the % may be the effect or the level left
[22] = Inhibition of C57BL/6 mouse Regulatory T cells differentiation from CD4+ T cells assessed as frequency of CD4+ Foxp3+ Treg cells at 1 uM incubated for 96 hrs by flow cytometric analysis ( Rvb = 24.48 %); type: functional, Regulatory T cell; set-up: scale not given: the % may be the effect or the level left
[23] = test system: Regulatory T cell; assay: Inhibition of C57BL/6 mouse Regulatory T cells differentiation from CD4+ T cells assessed as change in Foxp3 mRNA expression at 0.1 to 1 uM incubated for 96 hrs by qPCR analysis; type: functional, cell-based; details: dose 0.1-1 µM
[24] = test system: Regulatory T cell; assay: Inhibition of C57BL/6 mouse Regulatory T cells differentiation from CD4+ T cells assessed as change in IL-10 mRNA expression at 0.1 to 1 uM incubated for 96 hrs by qPCR analysis; type: functional, cell-based; details: dose 0.1-1 µM
[25] = test system: Th17; assay: Inhibition of C57BL/6 mouse Th17 cell differentiation from CD4+ T cells assessed as decrease in glucose consumption incubated for 48 hrs by colorimetric analysis; type: functional, cell-based; details: dose 1.0 µM
[26] = test system: Th17; assay: Inhibition of C57BL/6 mouse Th17 cell differentiation from CD4+ T cells assessed as reduction in lactate production at […] to 1 uM incubated for 48 hrs by colorimetric analysis; type: functional, cell-based
[27] = test system: Th17; assay: Inhibition of C57BL/6 mouse Th17 cell differentiation from CD4+ T cells assessed as reduction in Glut1 protein level; type: functional, cell-based
[28] = test system: Th17; assay: Inhibition of C57BL/6 mouse Th17 cell differentiation from CD4+ T cells assessed as reduction in HK2 protein level; type: functional, cell-based
[29] = test system: Th17; assay: Inhibition of C57BL/6 mouse Th17 cell differentiation from CD4+ T cells assessed as reduction in PFK1 protein level; type: functional, cell-based
[30] = test system: Th17; assay: Inhibition of C57BL/6 mouse Th17 cell differentiation from CD4+ T cells assessed as reduction in Glut1 mRNA level; type: functional, cell-based
[31] = test system: Th17; assay: Inhibition of C57BL/6 mouse Th17 cell differentiation from CD4+ T cells assessed as reduction in HK2 mRNA level; type: functional, cell-based
[32] = test system: Th17; assay: Inhibition of C57BL/6 mouse Th17 cell differentiation from CD4+ T cells assessed as reduction in PFK1 mRNA level; type: functional, cell-based
[33] = test system: Mus musculus; assay: Antiinflammatory activity in DSS-induced colitis female C57BL/6 mouse model assessed as reduction in body weight loss at 5 to 10 mg/kg, ip administered for 12 days with subsequent treatment of DSS for 9 days followed by drinking water for 3 days; type: functional, organism-based; details: dose 5-10 mg/kg, time 12.0 day
[34] = test system: Mus musculus; assay: Antiinflammatory activity in DSS-induced colitis female C57BL/6 mouse model assessed as reduction in disease activity index score at 5 to 10 mg/kg, ip administered for 12 days with subsequent treatment of DSS for 9 days followed by drinking water for 3 days; type: functional, organism-based; details: dose 5-10 mg/kg, time 12.0 day
[35] = test system: Mus musculus; assay: Antiinflammatory activity in DSS-induced colitis female C57BL/6 mouse model assessed as reduction in shortening of colon length at 5 mg/kg, ip administered for 12 days with subsequent treatment of DSS for 9 days followed by drinking water for 3 days; type: functional, organism-based; details: time 12.0 day
[36] = test system: Mus musculus; assay: Antiinflammatory activity in DSS-induced colitis female C57BL/6 mouse model assessed as improvement in crypt deformation at 5 to 10 mg/kg, ip administered for 12 days with subsequent treatment of DSS for 9 days followed by drinking water for 3 days by H and E staining based analysis; type: functional, organism-based; details: dose 5-10 mg/kg, time 12.0 day
[37] = test system: Mus musculus; assay: Antiinflammatory activity in DSS-induced colitis female C57BL/6 mouse model assessed as improvement in inflammatory cell infiltration at 5 to 10 mg/kg, ip administered for 12 days with subsequent treatment of DSS for 9 days followed by drinking water for 3 days by H and E staining based analysis; type: functional, organism-based; details: dose 5-10 mg/kg, time 12.0 day
[38] = test system: Mus musculus; assay: Antiinflammatory activity in DSS-induced colitis female C57BL/6 mouse model assessed as improvement in goblet cell loss at 5 to 10 mg/kg, ip administered for 12 days with subsequent treatment of DSS for 9 days followed by drinking water for 3 days by H and E staining based analysis; type: functional, organism-based; details: dose 5-10 mg/kg, time 12.0 day

Structure (SMILES): C=C1C(=O)O[C@H]2[C@H]1CC/C(COC(F)(F)F)=C\CC[C@@]1(C)O[C@@H]21
- IC50 [1]: 430 nM
- AC50 [2]: 144 nM
- Ratio IC50 [3]: 5
- Activity [4]: Active
- Ka [5]: 1.12 10^4/Ms
- Kd [6]: 0.028 s⁻¹
- Kd [7]: 2480 nM
- Activity [8]: Active
- Activity [9]: Active
- inhibition [10]: Active
- Activity [11]: inactive
- Activity [12]: Active
- inhibition [13]: Active
- inhibition [14]: Active
- inhibition [15]: Active
- inhibition [16]: Active
- Activity [17]: 17.11%
- Activity [18]: 14.67%
- Activity [19]: 9.84%
- Activity [20]: 23.97%
- Activity [21]: 24.84%
- Activity [22]: 25.4%
- inhibition [23]: inactive
- inhibition [24]: inactive
- inhibition [25]: Dose-Dependent Effect
- inhibition [26]: Active
- inhibition [27]: Active
- inhibition [28]: Active
- inhibition [29]: Active
- inhibition [30]: Active
- inhibition [31]: Active
- inhibition [32]: Active
- Activity [33]: Active
- Activity [34]: Active
- Activity [35]: Active
- Activity [36]: Active
- Activity [37]: Active
- Activity [38]: Active
